Results published in PubChem BioAssay AID330 (DTP/NCI, 2004).
“And” between values parts separate entries of the source, which are not always exact repeats. Equal entries are not always repeated. Toxic doses and inconclusive results are not listed.

System: P388 leukemia ip, CD2F1 mice, survival T/C
Experiment: NCI In Vivo Anticancer Drug Screen. Data for tumor model P388 Leukemia (intraperitoneal) in CD2F1 (CDF1) mice
Conditions: endpoint: median survival time, higher = longer survival
Method in brief: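 Mice carrying the transplanted tumor received test compound or vehicle. Survival was recorded in each group, and the value is the treated-group measurement divided by that of the vehicle-treated control group.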

[1] = dose: 60.0 mg/kg/injection, schedule: Q01DX005 (ip), vehicle: saline with Tween-80
[2] = dose: 120.0 mg/kg/injection, schedule: Q01DX005 (ip), vehicle: saline with Tween-80
[3] = dose: 240.0 mg/kg/injection, schedule: Q01DX005 (ip), vehicle: saline with Tween-80
[4] = dose: 50.0 mg/kg/injection, schedule: Q01DX005 (ip), vehicle: Klucel (hydroxypropylcellulose) (HPC)
[5] = dose: 100.0 mg/kg/injection, schedule: Q01DX005 (ip), vehicle: Klucel (hydroxypropylcellulose) (HPC)
[6] = dose: 200.0 mg/kg/injection, schedule: Q01DX005 (ip), vehicle: Klucel (hydroxypropylcellulose) (HPC)
[7] = dose: 100.0 mg/kg/injection, schedule: Q01DX009 (ip), vehicle: saline with Tween-80
[8] = dose: 200.0 mg/kg/injection, schedule: Q01DX009 (ip), vehicle: saline with Tween-80
[9] = dose: 50.0 mg/kg/injection, schedule: Q01DX009 (ip), vehicle: saline

SMILES: OCc1c(CO)c(-c2ccc(Cl)cc2)n2c1CCC2
- T/C (dose: 12.5 mg/kg/injection, schedule: Q01DX005 (ip), vehicle: distilled water + Tween-80): 120 % of control
- T/C (dose: 25.0 mg/kg/injection, schedule: Q01DX005 (ip), vehicle: distilled water + Tween-80): 111 % of control and 120 % of control
- T/C (dose: 50.0 mg/kg/injection, schedule: Q01DX005 (ip), vehicle: distilled water + Tween-80): 112 % of control
- T/C (dose: 100.0 mg/kg/injection, schedule: Q01DX005 (ip), vehicle: distilled water + Tween-80): 156 % of control
- T/C (dose: 200.0 mg/kg/injection, schedule: Q01DX005 (ip), vehicle: distilled water + Tween-80): 186 % of control
- T/C (dose: 400.0 mg/kg/injection, schedule: Q01DX005 (ip), vehicle: distilled water + Tween-80): 157 % of control

SMILES: CCOC1OCCCC1(C)C (stereo unspecified)
- T/C [1]: 100 % of control
- T/C [2]: 105 % of control
- T/C [3]: 112 % of control

SMILES: C#CO[C@@H]1C[C@H](C)CCC1C(C)C (stereo partly specified)
- T/C [1]: 100 % of control
- T/C [2]: 106 % of control

SMILES: O=C1c2ccccc2C(Cl)(c2ccc(Cl)cc2)c2ccc(Cl)cc21 (stereo unspecified)
- T/C (dose: 25.0 mg/kg/injection, schedule: Q01DX005 (ip), vehicle: saline with Tween-80): 107 % of control

SMILES: COc1ccc2c(c1)CCC(c1ccccc1)=C2c1ccc(OCCN2CCCC2)cc1
- T/C (dose: 6.0 mg/kg/injection, schedule: Q01DX005 (ip), vehicle: Klucel (hydroxypropylcellulose) (HPC)): 102 % of control
- T/C (dose: 12.0 mg/kg/injection, schedule: Q01DX005 (ip), vehicle: Klucel (hydroxypropylcellulose) (HPC)): 105 % of control
- T/C (dose: 24.0 mg/kg/injection, schedule: Q01DX005 (ip), vehicle: Klucel (hydroxypropylcellulose) (HPC)): 105 % of control
- T/C (dose: 48.0 mg/kg/injection, schedule: Q01DX005 (ip), vehicle: Klucel (hydroxypropylcellulose) (HPC)): 103 % of control

SMILES: COCC1(C)CCCC2(C)C1CCC13CCCCC12O3 (stereo unspecified)
- T/C (dose: 100.0 mg/kg/injection, schedule: Q01DX001 (ip), vehicle: Klucel (hydroxypropylcellulose) (HPC)): 100 % of control
- T/C (dose: 200.0 mg/kg/injection, schedule: Q01DX001 (ip), vehicle: Klucel (hydroxypropylcellulose) (HPC)): 100 % of control
- T/C (dose: 400.0 mg/kg/injection, schedule: Q01DX001 (ip), vehicle: Klucel (hydroxypropylcellulose) (HPC)): 100 % of control

SMILES: Nc1nnc(CCCCCCCc2nnc(N)o2)o1
- T/C [1]: 104 % of control
- T/C [2]: 99 % of control
- T/C [3]: 105 % of control

SMILES: C=CC(C=C)O[Si](C)(C)C(C)(C)C
- T/C (dose: 23.0 mg/kg/injection, schedule: Q01DX005 (ip), vehicle: saline): 101 % of control
- T/C (dose: 46.0 mg/kg/injection, schedule: Q01DX005 (ip), vehicle: saline): 105 % of control
- T/C (dose: 92.0 mg/kg/injection, schedule: Q01DX005 (ip), vehicle: saline): 105 % of control

SMILES: N=C(N)c1ccc(N=NNc2ccc(C(=N)N)cc2)cc1
- T/C (dose: 12.5 mg/kg/injection, schedule: Q01DX005 (ip), vehicle: Klucel + Tween-80): 94 % of control
- T/C (dose: 12.5 mg/kg/injection, schedule: Q01DX005 (ip), vehicle: saline with Tween-80): 96 % of control
- T/C (dose: 25.0 mg/kg/injection, schedule: Q01DX005 (ip), vehicle: Klucel + Tween-80): 98 % of control
- T/C (dose: 50.0 mg/kg/injection, schedule: Q01DX005 (ip), vehicle: Klucel + Tween-80): 100 % of control

SMILES: Cc1ccc(COc2ccc(Cl)cc2Cn2ccnc2)cc1
- T/C (dose: 25.0 mg/kg/injection, schedule: Q04DX002 (ip), vehicle: saline): 104 % of control
- T/C (dose: 50.0 mg/kg/injection, schedule: Q04DX002 (ip), vehicle: saline): 106 % of control
- T/C (dose: 100.0 mg/kg/injection, schedule: Q04DX002 (ip), vehicle: saline): 106 % of control and 116 % of control

SMILES: COc1ccc2c(c1)S(=O)(=O)C(c1ccccc1)=CC2=O
- T/C [4]: 114 % of control
- T/C [5]: 115 % of control
- T/C [6]: 123 % of control

SMILES: COC(=O)C1C(c2ccccc2)C1(C#N)C#N (stereo unspecified)
- T/C (dose: 60.0 mg/kg/injection, schedule: Q01DX005 (ip), vehicle: Klucel (hydroxypropylcellulose) (HPC)): 96 % of control
- T/C (dose: 120.0 mg/kg/injection, schedule: Q01DX005 (ip), vehicle: Klucel (hydroxypropylcellulose) (HPC)): 106 % of control
- T/C (dose: 240.0 mg/kg/injection, schedule: Q01DX005 (ip), vehicle: Klucel (hydroxypropylcellulose) (HPC)): 98 % of control

SMILES: O=C(OCC1C=C(OC(=O)c2ccccc2)C(=O)C(OC(=O)c2ccccc2)O1)c1ccccc1 (stereo unspecified)
- T/C (dose: 6.25 mg/kg/injection, schedule: Q01DX009 (ip), vehicle: saline with Tween-80): 98 % of control
- T/C (dose: 12.5 mg/kg/injection, schedule: Q01DX009 (ip), vehicle: saline with Tween-80): 94 % of control
- T/C (dose: 25.0 mg/kg/injection, schedule: Q01DX009 (ip), vehicle: saline with Tween-80): 86 % of control
- T/C (dose: 50.0 mg/kg/injection, schedule: Q01DX009 (ip), vehicle: saline with Tween-80): 89 % of control
- T/C [7]: 93 % of control
- T/C [8]: 102 % of control

SMILES: Cc1cc(C)c2c(c1)sc1n[nH]c(=S)n12
- T/C (dose: 50.0 mg/kg/injection, schedule: Q01DX009 (ip), vehicle: Klucel (hydroxypropylcellulose) (HPC)): 98 % of control
- T/C (dose: 100.0 mg/kg/injection, schedule: Q01DX009 (ip), vehicle: Klucel (hydroxypropylcellulose) (HPC)): 90 % of control
- T/C (dose: 200.0 mg/kg/injection, schedule: Q01DX009 (ip), vehicle: Klucel (hydroxypropylcellulose) (HPC)): 90 % of control

SMILES: CCCCCCCCCCCC(=O)NC(=S)Nc1ccccc1C(=O)OC
- T/C (dose: 25.0 mg/kg/injection, schedule: Q01DX009 (ip), vehicle: saline): 105 % of control
- T/C [9]: 99 % of control

SMILES: CC(O)(c1ccccc1)C1C(c2ccccc2)N1Cc1ccccc1 (stereo unspecified)
- T/C (dose: 50.0 mg/kg/injection, schedule: Q04DX003 (ip), vehicle: saline sonified): 100 % of control
- T/C (dose: 100.0 mg/kg/injection, schedule: Q04DX003 (ip), vehicle: saline sonified): 91 % of control

SMILES: CS(=O)(=O)OCC(O)C(O)C(O)C(O)COS(C)(=O)=O (stereo unspecified)
- T/C (dose: 50.0 mg/kg/injection, schedule: Q01DX010 (ip), vehicle: saline): 100 % of control
- T/C (dose: 100.0 mg/kg/injection, schedule: Q01DX010 (ip), vehicle: saline): 100 % of control
- T/C (dose: 200.0 mg/kg/injection, schedule: Q01DX010 (ip), vehicle: saline): 172 % of control
- T/C (dose: 400.0 mg/kg/injection, schedule: Q01DX010 (ip), vehicle: saline): 209 % of control

SMILES: CN(C)CC(CN(C)C)C(=O)c1ccc(Oc2ccc(Cl)cc2)cc1
- T/C (dose: 1.88 mg/kg/injection, schedule: Q01DX005 (ip), vehicle: saline): 110 % of control
- T/C (dose: 3.75 mg/kg/injection, schedule: Q01DX005 (ip), vehicle: saline): 116 % of control
- T/C (dose: 7.5 mg/kg/injection, schedule: Q01DX005 (ip), vehicle: saline): 107 % of control and 112 % of control

SMILES: NCC(=O)O.[Cl-].[Cl-].[Cl-].[Cl-].[Pt+2]
- T/C (dose: 12.5 mg/kg/injection, schedule: Q01DX009 (ip), vehicle: saline): 124 % of control
- T/C (dose: 14.7 mg/kg/injection, schedule: Q01DX009 (ip), vehicle: saline): 108 % of control
- T/C (dose: 22.0 mg/kg/injection, schedule: Q01DX009 (ip), vehicle: saline): 108 % of control

SMILES: O=C1c2ccccc2C(=O)C2C1C1(c3ccccc3)OC2(c2ccccc2)c2ccccc21 (stereo unspecified)
- T/C (dose: 25.0 mg/kg/injection, schedule: Q01DX005 (ip), vehicle: Klucel (hydroxypropylcellulose) (HPC)): 101 % of control
- T/C [4]: 99 % of control
- T/C [5]: 101 % of control

SMILES: O=[N+]([O-])/C=C/c1ccccc1
- T/C (dose: 5.0 mg/kg/injection, schedule: Q01DX009 (ip), vehicle: saline sonified): 100 % of control
- T/C (dose: 10.0 mg/kg/injection, schedule: Q01DX009 (ip), vehicle: saline sonified): 100 % of control
- T/C (dose: 20.0 mg/kg/injection, schedule: Q01DX009 (ip), vehicle: saline sonified): 100 % of control

SMILES: CC(N)C(=O)NC(CC(N)=O)C(=O)O (stereo unspecified)
- T/C (dose: 50.0 mg/kg/injection, schedule: Q01DX005 (ip), vehicle: saline): 105 % of control
- T/C [9]: 101 % of control
- T/C (dose: 100.0 mg/kg/injection, schedule: Q01DX005 (ip), vehicle: saline): 110 % of control
- T/C (dose: 100.0 mg/kg/injection, schedule: Q01DX009 (ip), vehicle: saline): 94 % of control
- T/C (dose: 200.0 mg/kg/injection, schedule: Q01DX005 (ip), vehicle: saline): 94 % of control
- T/C (dose: 200.0 mg/kg/injection, schedule: Q01DX009 (ip), vehicle: saline): 93 % of control

SMILES: O=[N+]([O-])c1ccc(S(=O)(=O)c2ccc(Nc3ccnc4cc(Cl)ccc34)cc2)cc1
- T/C [4]: 98 % of control
- T/C [5]: 91 % of control
- T/C [6]: 90 % of control

SMILES: COC(=O)c1cc(-c2ccc(N)cc2)n2c(N)nnc2n1
- T/C [1]: 107 % of control
- T/C [2]: 91 % of control
- T/C [3]: 98 % of control

SMILES: C[C@@H]1CC2=CC(=O)CC[C@]2(C)[C@H]2CC[C@]3(C)[C@@H](O)CC[C@H]3[C@H]12
- T/C [7]: 90 % of control
- T/C [8]: 90 % of control
